Literature values in patent publication US20220054659A1, “PSMA-TARGETED PAMAM DENDRIMERS FOR SPECIFIC DELIVERY OF IMAGING, CONTRAST AND THERAPEUTIC AGENTS” (The Johns Hopkins University, priority 2018, published 2022).

Target: PSMA (Homo sapiens, UniProt Q04609)
Sequence (Q04609 whole entry, species assumed): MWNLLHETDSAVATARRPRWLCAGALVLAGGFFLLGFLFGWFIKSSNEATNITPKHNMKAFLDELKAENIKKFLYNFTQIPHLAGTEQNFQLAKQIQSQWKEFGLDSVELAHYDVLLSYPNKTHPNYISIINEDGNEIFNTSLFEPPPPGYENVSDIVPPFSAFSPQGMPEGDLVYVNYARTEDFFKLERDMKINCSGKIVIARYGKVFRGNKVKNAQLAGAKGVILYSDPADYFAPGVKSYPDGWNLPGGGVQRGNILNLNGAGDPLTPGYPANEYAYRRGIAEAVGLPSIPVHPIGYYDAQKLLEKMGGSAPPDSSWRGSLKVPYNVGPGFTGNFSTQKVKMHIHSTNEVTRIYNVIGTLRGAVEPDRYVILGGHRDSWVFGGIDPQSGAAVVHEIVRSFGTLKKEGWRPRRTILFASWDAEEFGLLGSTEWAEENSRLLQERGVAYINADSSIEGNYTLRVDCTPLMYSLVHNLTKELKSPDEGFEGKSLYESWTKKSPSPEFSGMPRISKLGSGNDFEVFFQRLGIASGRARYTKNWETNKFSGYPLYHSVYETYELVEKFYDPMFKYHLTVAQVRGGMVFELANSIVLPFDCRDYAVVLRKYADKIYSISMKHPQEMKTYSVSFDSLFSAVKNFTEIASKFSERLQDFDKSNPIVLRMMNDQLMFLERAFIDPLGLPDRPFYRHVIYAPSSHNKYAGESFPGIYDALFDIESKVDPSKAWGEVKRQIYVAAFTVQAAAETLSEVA

## NCCCC[C@H](NC(=O)N[C@@H](CCC(=O)O)C(=O)O)C(=O)O [Lys-Glu-urea]
  affinity to PSMA: picomolar
